# Read-outs that look alike come from different tables or passages of the source.
# Assay: Plasma pharmacokinetic studies of idronoxil in rats (rectal in cocoa butter vs intestinal in lipid emulsion)
# Assay type: in vivo, Male Sprague-Dawley rats
# Conditions: for Peak Area in rat plasma, Rat 2 / Peak Area in rat plasma, Rat 1 / Peak Area in rat plasma, Rat 3 / half-life / concentration at 0 h / concentration at 1 h / concentration at 2 h / concentration at 3 h / concentration at 4 h / concentration at 5 h / concentration at 6 h / concentration at 7 h / concentration at 8 h: 10 mg/kg; for half-life / concentration at 0 h / concentration at 1 h / concentration at 2 h / concentration at 3 h / concentration at 4 h / concentration at 5 h / concentration at 6 h / concentration at 7 h / concentration at 8 h: male, Sprague-Dawley, rat, plasma
# Procedure: The objective of this study in rodents is to determine the plasma pharmacokinetics of idronoxil after rectal delivery and intestinal delivery in lipids (cocoa butter or emulsion).
# Part (1); n=3 rats: Rectal administration of idronoxil in cocoa butter liquid formulation, collection of plasma.
# Part (2); n=3 rats: Intestinal administration (intraduodenal infusion) of idronoxil in lipid formulation, collection of plasma.
# 3 mg idronoxil per rat (equivalent to 10 mg/kg idronoxil).
# Preparation of lipid formulation for intestinal dosing: Briefly, 3 mg of idronoxil, 80 mg oleic acid and 50 mg Tween 80 were mixed in a glass vial as the lipid phase. An aqueous phase consisting of 5.6 mL phosphate buffered saline (PBS, pH 7.4) was subsequently added to the lipid phase and the formulation emulsified by ultrasonication with a Misonix XL 2020 ultrasonic processor equipped with a 3.2-mm microprobe tip running at an amplitude of 240 μm and a frequency of 20 kHz for 4 min at room temperature.
# Dose administration: The lipid formulations were infused into the duodenum of the rats at 2.8 mL/h for 2 h. After that, normal saline was infused into the duodenum at 2.8 mL/h for the remainder of the experiment to hydrate the animals.
# Preparation of cocoa butter formulation for rectal dosing: Briefly, 100 mg of the cocoa butter was weighed into a homogenizer glass tube and melted at 32 degrees Celsius. 3 mg of idronoxil was then added and the formulation mixed manually with the homogenizer.
# Dose administration: The warmed/melted cocoa butter formulations were dosed into the rectum via placing the tip of a 3 cm plastic mouse oral gavage device attached to a 1 ml plastic syringe exactly 1 cm into the rectum. The formulation was dosed over 15 sec. After that, normal saline was infused into the duodenum at 2.8 mL/h for the remainder of the experiment to hydrate the animals.
# Male Sprague-Dawley rats (n=3 per group, body weight 300±40 g) were used in the study. Each animal was fasted overnight prior to surgical cannulation of the carotid artery and duodenum.
# The rats were anaesthetized (using isoflurane anesthesia), placed on a heated pad at 37° C. and cannulas were inserted into the duodenum (for dosing of lipid formulation and rehydration) and carotid artery (for blood collection).
# Post-surgery, rats were re-hydrated for 0.5 h via intraduodenal infusion of normal saline at 2.8 mL/h prior to dosing via intraduodenal or rectal route.
# Plasma collection: Plasma samples were collected for 8 h into Eppendorf tubes containing 5 μL of 1,000 IU/mL heparin. Aliquots (20 μL) of each hourly collected samples were transferred into labelled 1.5 mL Eppendorf tubes. Aliquoted and original bulk samples were stored at −20° C. until analysis.
# Sample analysis: Plasma concentrations of idronoxil were measured by the HMST-lab using a validated HPLC-MS/MS method. Briefly, LC-MS analysis was performed on a Shimadzu 8050 triple quadrupole mass spectrometer coupled with a Shimadzu Nexera X2 UHPLC. MS analysis was conducted in positive mode electrospray ionisation and quantitation of the analytes performed in MRM mode. The column employed was a Phenomenex Kinetex EVO C18 column (2.6 μm particle size, 50×2.1 mm i.d.) equipped with a Phenomenex Security Guard column with C18 packing material. The column was maintained at 40-C. The mobile phase consisted of 0.2% formic acid in water (Mobile Phase A) and 100% acetonitrile (Mobile Phase B). Separations were conducted using a flow rate of 0.4 mL/min and an injection volume of 6 μL. Samples were controlled in the autosampler at a temperature of 10° C.
# Non-compartmental pharmacokinetic (PK) analysis: The elimination rate constant (slope), half-life (i.e., 0.693/k), and mean residence time (MRT) were calculated using excel. The area under the plasma-concentration time curves from time zero to 8 h (AUC0-8 h) were calculated using the trapezoid rule to the last measured time point.
# [1] = Intestinal administration of idronoxil, lipid emulsion, 1 hrs
# [2] = Intestinal administration of idronoxil, lipid emulsion, 2 hrs
# [3] = Intestinal administration of idronoxil, lipid emulsion, 3 hrs
# [4] = Intestinal administration of idronoxil, lipid emulsion, 4 hrs
# [5] = Intestinal administration of idronoxil, lipid emulsion, 5 hrs
# [6] = Intestinal administration of idronoxil, lipid emulsion, 6 hrs
# [7] = Intestinal administration of idronoxil, lipid emulsion, 7 hrs
# [8] = Intestinal administration of idronoxil, lipid emulsion, 8 hrs
# [9] = Rectal administration of idronoxil, cocoa butter, 1 hrs
# [10] = Rectal administration of idronoxil, cocoa butter, 2 hrs
# [11] = Rectal administration of idronoxil, cocoa butter, 3 hrs
# [12] = Rectal administration of idronoxil, cocoa butter, 4 hrs
# [13] = Rectal administration of idronoxil, cocoa butter, 5 hrs
# [14] = Rectal administration of idronoxil, cocoa butter, 6 hrs
# [15] = Rectal administration of idronoxil, cocoa butter, 7 hrs
# [16] = Rectal administration of idronoxil, cocoa butter, 8 hrs
# [17] = intestinally-dosed rats compared with rectally-dosed rats
# [18] = oral delivery (intestinal delivery model)
# [19] = other: intraduodenal infusion, Intestinal delivery (intraduodenal infusion), lipid emulsion, read-out: Idronoxil Plasma Concentration Mean
# [20] = other: intraduodenal infusion, Intestinal delivery (intraduodenal infusion), lipid emulsion, read-out: Idronoxil Plasma Concentration Rat 2
# [21] = other: intraduodenal infusion, Intestinal delivery (intraduodenal infusion), lipid emulsion, read-out: Idronoxil Plasma Concentration Rat 1
# [22] = other: intraduodenal infusion, Intestinal delivery (intraduodenal infusion), lipid emulsion, read-out: Idronoxil Plasma Concentration Rat 3
# [23] = other: rectal, Rectal delivery, cocoa butter, read-out: Idronoxil Plasma Concentration Mean
# [24] = other: rectal, Rectal delivery, cocoa butter, read-out: Idronoxil Plasma Concentration Rat 1
# [25] = other: rectal, Rectal delivery, cocoa butter, read-out: Idronoxil Plasma Concentration Rat 2
# [26] = other: rectal, Rectal delivery, cocoa butter, read-out: Idronoxil Plasma Concentration Rat 3
smiles,measurement,setting,value
"Oc1ccc(C2=Cc3ccc(O)cc3OC2)cc1 [Idronoxil, 2H-1-Benzopyran-7-0,1,3-(4-hydroxyphenyl)]","Peak Area in rat plasma, Rat 2","Intestinal administration of idronoxil, lipid emulsion, 0 hrs","62,126"
same,"Peak Area in rat plasma, Rat 1",[1],"236,465"
same,"Peak Area in rat plasma, Rat 2",[1],"184,114"
same,"Peak Area in rat plasma, Rat 3",[1],"222,037"
same,"Peak Area in rat plasma, Rat 1",[2],"335,894"
same,"Peak Area in rat plasma, Rat 2",[2],"238,289"
same,"Peak Area in rat plasma, Rat 3",[2],"237,900"
same,"Peak Area in rat plasma, Rat 1",[3],"34,094"
same,"Peak Area in rat plasma, Rat 2",[3],"71,267"
same,"Peak Area in rat plasma, Rat 3",[3],"32,152"
same,"Peak Area in rat plasma, Rat 1",[4],"25,198"
same,"Peak Area in rat plasma, Rat 2",[4],"14,571"
same,"Peak Area in rat plasma, Rat 3",[4],"13,053"
same,"Peak Area in rat plasma, Rat 1",[5],"26,342"
same,"Peak Area in rat plasma, Rat 2",[5],"10,183"
same,"Peak Area in rat plasma, Rat 3",[5],"13,297"
same,"Peak Area in rat plasma, Rat 1",[6],"6,108"
same,"Peak Area in rat plasma, Rat 2",[6],"8,531"
same,"Peak Area in rat plasma, Rat 3",[6],"17,321"
same,"Peak Area in rat plasma, Rat 1",[7],"8,023"
same,"Peak Area in rat plasma, Rat 2",[7],"14,276"
same,"Peak Area in rat plasma, Rat 3",[7],"8,371"
same,"Peak Area in rat plasma, Rat 1",[8],"13,012"
same,"Peak Area in rat plasma, Rat 2",[8],"9,110"
same,"Peak Area in rat plasma, Rat 3",[8],"8,020"
same,"Peak Area in rat plasma, Rat 1",[9],"57,590"
same,"Peak Area in rat plasma, Rat 2",[9],"213,825"
same,"Peak Area in rat plasma, Rat 3",[9],"46,167"
same,"Peak Area in rat plasma, Rat 1",[10],"37,493"
same,"Peak Area in rat plasma, Rat 2",[10],"179,554"
same,"Peak Area in rat plasma, Rat 3",[10],"50,847"
same,"Peak Area in rat plasma, Rat 1",[11],"37,603"
same,"Peak Area in rat plasma, Rat 2",[11],"152,537"
same,"Peak Area in rat plasma, Rat 3",[11],"45,812"
same,"Peak Area in rat plasma, Rat 1",[12],"34,050"
same,"Peak Area in rat plasma, Rat 2",[12],"117,814"
same,"Peak Area in rat plasma, Rat 3",[12],"49,738"
same,"Peak Area in rat plasma, Rat 1",[13],"61,323"
same,"Peak Area in rat plasma, Rat 2",[13],"153,360"
same,"Peak Area in rat plasma, Rat 3",[13],"75,786"
same,"Peak Area in rat plasma, Rat 1",[14],"41,246"
same,"Peak Area in rat plasma, Rat 2",[14],"114,191"
same,"Peak Area in rat plasma, Rat 3",[14],"42,370"
same,"Peak Area in rat plasma, Rat 1",[15],"46,844"
same,"Peak Area in rat plasma, Rat 2",[15],"100,506"
same,"Peak Area in rat plasma, Rat 3",[15],"25,104"
same,"Peak Area in rat plasma, Rat 1",[16],"14,934"
same,"Peak Area in rat plasma, Rat 2",[16],"80,236"
same,"Peak Area in rat plasma, Rat 3",[16],"40,752"
same,"amount of idronoxil observed in plasma, rectal relative to oral administration",at 3 to 4 hours after administration,3 to 4 times
same,time for which blood levels >20 ng/mL were achieved,idronoxil dosed orally (intestinal delivery model),about 3 hours
same,time from administration by which the bulk of the total exposure is completed,intestinally-dosed rats,about 3 hours
same,maximum concentration of free idronoxil,[17],significantly greater
same,proportion of drug metabolized by Phase 2 metabolism,[17],considerably greater
same,half-life,[18],~45 min
same,half-life,rectal idronoxil,> 480 min
same,concentration at 0 h,[19],33.8 ng/mL
same,concentration at 0 h,[20],33.8 ng/mL
same,concentration at 1 h,[19],118 ng/mL
same,concentration at 1 h,[21],114 ng/mL
same,concentration at 1 h,[20],114 ng/mL
same,concentration at 1 h,[22],128 ng/mL
same,concentration at 2 h,[19],158 ng/mL
same,concentration at 2 h,[21],200 ng/mL
same,concentration at 2 h,[20],140 ng/mL
same,concentration at 2 h,[22],136 ng/mL
same,concentration at 3 h,[19],24.3 ng/mL
same,concentration at 3 h,[21],17.8 ng/mL
same,concentration at 3 h,[20],38.2 ng/mL
same,concentration at 3 h,[22],16.8 ng/mL
same,concentration at 4 h,[19],9.57 ng/mL
same,concentration at 4 h,[21],16.1 ng/mL
same,concentration at 4 h,[20],7.03 ng/mL
same,concentration at 4 h,[22],5.62 ng/mL
same,concentration at 5 h,[19],9.27 ng/mL
same,concentration at 5 h,[21],17.4 ng/mL
same,concentration at 5 h,[20],4.46 ng/mL
same,concentration at 5 h,[22],6 ng/mL
same,concentration at 6 h,[19],4.79 ng/mL
same,concentration at 6 h,[21],2.86 ng/mL
same,concentration at 6 h,[20],3.79 ng/mL
same,concentration at 6 h,[22],7.72 ng/mL
same,concentration at 7 h,[19],5.04 ng/mL
same,concentration at 7 h,[21],4.68 ng/mL
same,concentration at 7 h,[20],6.75 ng/mL
same,concentration at 7 h,[22],3.7 ng/mL
same,concentration at 8 h,[19],5.14 ng/mL
same,concentration at 8 h,[21],7.83 ng/mL
same,concentration at 8 h,[20],4.23 ng/mL
same,concentration at 8 h,[22],3.37 ng/mL
same,concentration at 0 h,[23],0 ng/mL
same,concentration at 1 h,[23],49.4 ng/mL
same,concentration at 1 h,[24],26.7 ng/mL
same,concentration at 1 h,[25],96.5 ng/mL
same,concentration at 1 h,[26],24.9 ng/mL
same,concentration at 2 h,[23],42.9 ng/mL
same,concentration at 2 h,[24],15.9 ng/mL
same,concentration at 2 h,[25],88.1 ng/mL
same,concentration at 2 h,[26],24.7 ng/mL
same,concentration at 3 h,[23],37.3 ng/mL
same,concentration at 3 h,[24],15.9 ng/mL
same,concentration at 3 h,[25],74.2 ng/mL
same,concentration at 3 h,[26],21.8 ng/mL
same,concentration at 4 h,[23],30.1 ng/mL
same,concentration at 4 h,[24],14.4 ng/mL
same,concentration at 4 h,[25],53.7 ng/mL
same,concentration at 4 h,[26],22.3 ng/mL
same,concentration at 5 h,[23],46.3 ng/mL
same,concentration at 5 h,[24],27.9 ng/mL
same,concentration at 5 h,[25],71.4 ng/mL
same,concentration at 5 h,[26],39.5 ng/mL
same,concentration at 6 h,[23],30.2 ng/mL
same,concentration at 6 h,[24],17.8 ng/mL
same,concentration at 6 h,[25],51.3 ng/mL
same,concentration at 6 h,[26],21.6 ng/mL
same,concentration at 7 h,[23],25 ng/mL
same,concentration at 7 h,[24],20.6 ng/mL
same,concentration at 7 h,[25],43 ng/mL
same,concentration at 7 h,[26],11.4 ng/mL
same,concentration at 8 h,[23],18.4 ng/mL
same,concentration at 8 h,[24],5.74 ng/mL
same,concentration at 8 h,[25],33.4 ng/mL
same,concentration at 8 h,[26],16.1 ng/mL
same,time at which drug levels are sub-therapeutic,[18],< 4 h
same,time within which drug levels substantially fall,[18],2 to 3 h
same,plasma concentration,"rats, 10 mg/kg body weight, single rectal administration, up to 8 hours",35 to 40 ng/mL
same,time for which therapeutic levels of free idronoxil were maintained in the blood,rectal delivery,at least 8 hours
same,"half-life, rectal relative to oral idronoxil",rectal vs oral,at least 5 times
same,time for which idronoxil levels remain almost constant (steady-state levels) post administration,rectally-dosed rats,at least 8 hours

# — patent US11559510B2, “Isoflavonoid composition with improved pharmacokinetics” (NOXOPHARM LIMITED, priority 2016, dated 2023)
